Laboratory results reported in US20170112775A1, “SITU SELF-ASSEMBLING PRO-NANOPARTICLE COMPOSITIONS AND METHODS OF PREPARATION AND USE THEREOF” (University of North Texas Health Science Center, priority 2015, published 2017).
Counter-ions that a name gives are not always drawn. Like-named read-outs stand apart in the source and are kept apart here.

Tests used:
[1] = cited from earlier work
[2] = Solubility screening in oils and surfactants; assay type: physicochemical
Procedure: These studies were performed to test the solubility of RTV in oils and surfactants. Briefly, oils and surfactants were accurately weighed into glass vials. Certain amounts of […] were added into the glass vials. The vials were stirred on the hot plate maintained at 65° C. for 3 min. The solubilization was monitored by eyes and the drug solubility (w/w) was estimated.
These studies were performed to test the solubility in oils and surfactants. The solubility of DTX was determined in oils (oleic acid, Migloyl 812, Kollisolv® MCT70, Kolliwax® GMSI, Imwitor® 960, and Labrafac) and surfactants (TPGS, Poloxamer 188, Tween 20, and Tween 80). Oils and surfactants were accurately weighed into glass vials. Excess amounts of DTX were added into glass vials containing vehicles. The vials were stirred on the hot plate maintained at 65° C. for 3 min. The drug solubility (w/w) was calculated.
These studies were performed to test the solubility in oils and surfactants. The solubility of CUR was determined in oils (Migloyl 812 N, Migloyl 829, Imwitor 491, Kollisolv MCT70, labrafac, Imwitor 900K, Imwitor 960 and Campriltol 888) and surfactants (Tween 20, Tween 80, Labrasol, Poloxamer 188, TPGS and Gelucire 44/14). Oils and surfactants were accurately weighed into glass vials. Excess amounts of CUR were added into glass vials containing vehicles. The vials were stirred on the hot plate maintained at 65° C. for 3 min. The drug solubility (w/w) was calculated.

[3] = test system: PC3 sensitive prostate cancer cell line; experiment: MTT cytotoxicity, PC3 sensitive; assay type: cell-based; conditions: Homo sapiens, 72 hr
Procedure: (§1) The cytotoxicity of DTX MT NPs was tested in PC3 and DU145 sensitive and resistant cell using MTT [3-(4,5-dimethylthiazol-2-yl)-2,5-diphenyltetrazolium bromide] assay. Cells were seeded into 96-well plates with a density of 7,000 cells/well and incubated at 37° C. for 24 hr under 5% CO2. Following that, cells were treated with a drug equivalent concentration ranging from 0.5-10,000 nM for DTX, DTX MT NPs, and blank NPs. Due to low water solubility, DTX was dissolved with DMSO. After 72 hr of incubation, the medium was removed from each well and replaced with 90 μL of DMEM medium without phenol red and 10 μL of MTT (5 mg/mL in PBS). The plates were incubated at 37° C. with 5% CO2 for 4 hr. […] The absorbance was measured at a test wavelength of 570 nm and a reference wavelength of 650 nm in a microplate reader (Synergy H1 hybrid Multi-Mode Microplate Reader)
(§2) The cytotoxicity of CUR MT NPs was tested in DU145 and PC-3 human prostate cancer cell lines using MTT [3-(4,5-dimethylthiazol-2-yl)-2,5-diphenyltetrazolium bromide] assay. […] After 72 hr of incubation, the medium was removed from each well and replaced with 90 μL of DMEM medium without phenol read and MTT (10 μL of 5 mg/mL in PBS). […] The absorbance was measured at a test wavelength of 570 nm and a reference wavelength of 650 nm in a microplate reader (Beckman Coulter, Inc.).

[4] = test system: DU145 sensitive prostate cancer cell line; experiment: MTT cytotoxicity, DU145 sensitive; assay type: cell-based; conditions: Homo sapiens, 72 hr
Procedure: as §1, §2

[5] = test system: PC3 resistant prostate cancer cell line; experiment: MTT cytotoxicity, PC3 resistant; assay type: cell-based; conditions: Homo sapiens, 72 hr
Procedure: as §1, §2

[6] = test system: DU145 resistant prostate cancer cell line; experiment: MTT cytotoxicity, DU145 resistant; assay type: cell-based, human; conditions: for IC50: Homo sapiens, 72 hr, MTT
Procedure: The cytotoxicity of DTX MT NPs was tested in PC3 and DU145 sensitive and resistant cell using MTT [3-(4,5-dimethylthiazol-2-yl)-2,5-diphenyltetrazolium bromide] assay. Cells were seeded into 96-well plates with a density of 7,000 cells/well and incubated at 37° C. for 24 hr under 5% CO2. Following that, cells were treated with a drug equivalent concentration ranging from 0.5-10,000 nM for DTX, DTX MT NPs, and blank NPs. Due to low water solubility, DTX was dissolved with DMSO. After 72 hr of incubation, the medium was removed from each well and replaced with 90 μL of DMEM medium without phenol red and 10 μL of MTT (5 mg/mL in PBS). The plates were incubated at 37° C. with 5% CO2 for 4 hr. Formazan produced by mitochondria enzymes of living cells was dissolved in 150 μL of isopropanol containing 0.04 N HCl for 5 min. The absorbance was measured at a test wavelength of 570 nm and a reference wavelength of 650 nm in a microplate reader (Synergy H1 hybrid Multi-Mode Microplate Reader)
The cytotoxicity of CUR MT NPs was tested in DU145 and PC-3 human prostate cancer cell lines using MTT [3-(4,5-dimethylthiazol-2-yl)-2,5-diphenyltetrazolium bromide] assay. Cells were seeded into 96-well plates at 7,000 cells/well and incubated 37° C. for 24 hr under 5% CO2. After overnight incubation, cells were treated with drug concentration ranging from 0-27 μM for CUR, CUR MT NPs, and blank NPs. Due to low water solubility, CUR was dissolved with DMSO. After 72 hr of incubation, the medium was removed from each well and replaced with 90 μL of DMEM medium without phenol read and MTT (10 μL of 5 mg/mL in PBS). After incubating for 4 hr at 37° C. with 5% CO2, 0.04 N HCl/isopropanol was added to each well and incubated for 5 min to dissolve formazan crystals formed by viable cells. The absorbance was measured at a test wavelength of 570 nm and a reference wavelength of 650 nm in a microplate reader (Beckman Coulter, Inc.).

[7] = PK study after subcutaneous injection; assay type: in vivo, Sprague Dawley rats; conditions: male, Sprague Dawley, rat, plasma, sc, after 6 days, one subcutaneous injection of LPV/RTV ISNPs
Procedure: Animal studies were performed in compliance with guidelines set by the University of North Texas Health Science Center Institutional Animal Care and Use Committees. Rats were housed in groups of 2 under a 12-h light/dark cycle with free access to food and water for 1 week before use. Sprague Dawley rats (males, 276-300 g, n=4) were purchased from Charles River Laboratories (Wilmington, Mass.). Pharmacokinetic studies were conducted to evaluate the pharmacokinetic profiles of LPV and RTV from LPV/RTV ISNPs. Rats were treated with 100 ul of LPV/RTV ISNPs to provide 100 mg/kg of LPV by subcutaneous injection. After the injection, the inventor collected the blood at 0, 1, 2, 3, 5, 6, 24 hours and 2, 3, 4, 5, 6 days. The blood was immediately centrifuged at 3400 rpm for 5 min at 4° C., and 100 ul of plasma samples were transferred to a new tube and stored at −20° C. until further analysis within 3 weeks. LPV and RTV concentrations in the plasma were determined by liquid chromatography-mass spectrometry (LC-MS, an Agilent G6460 Triple Quad LC-MS system) using a previously reported method.

[8] = test system: cancer cells; conditions: cited from earlier work

Question: Which Bioavailability ([1]; oral) does the source give for `CC(C)OC(=O)OCOP(=O)(CO[C@H](C)Cn1cnc2c(N)ncnc21)OCOC(=O)OC(C)C` [TDF, tenofovir disoproxil fumarate] here?
Answer: Its Bioavailability is 25%.

Question: What does the source list for `CC(=O)O[C@@]12CO[C@@H]1C[C@H](O)[C@@]1(C)C(=O)[C@H](O)C3=C(C)[C@@H](OC(=O)[C@H](O)[C@@H](NC(=O)OC(C)(C)C)c4ccccc4)C[C@@](O)([C@@H](OC(=O)c4ccccc4)[C@H]21)C3(C)C` [docetaxel]?
Answer: Solubility (w/w) ([2]; in Imwitor 960K, 65° C.): 0.053 w/w; Solubility (w/w) ([2]; in Kollisolv MCT70, 65° C.): 0.038 w/w; Solubility (w/w) ([2]; in Kolliwax GMS I, 65° C.): 0.025 w/w; Solubility (w/w) ([2]; in Labrafac, 65° C.): 0.022 w/w; Solubility (w/w) ([2]; in Migloyl 812, 65° C.): 0.079 w/w; Solubility (w/w) ([2]; in Oleic acid, 65° C.): 0.066 w/w; Solubility (w/w) ([2]; in Poloxamer 188, 65° C.): 0.019 w/w; Solubility (w/w) ([2]; in TPGS, 65° C.): 0.008 w/w; Solubility (w/w) ([2]; in Tween 20, 65° C.): 0.052 w/w; Solubility (w/w) ([2]; in Tween 80, 65° C.): 0.082 w/w; IC50 ([3]; PC3 sensitive): 0.007 ± 0.0004 µM; IC50 ([4]; DU-145, DU145 sensitive): 0.0068 ± 0.0005 µM; IC50 ([5]; PC3 resistance): 0.0753 ± 0.0027 µM; IC50 ([6]; DU-145, DU145 resistance): 0.87 ± 0.0854 µM

Question: Which concentration at 6 days ([7]; read-out: RTV Ctrough) does the source give for `CC(C)c1nc(CN(C)C(=O)N[C@H](C(=O)N[C@@H](Cc2ccccc2)C[C@H](O)[C@H](Cc2ccccc2)NC(=O)OCc2cncs2)C(C)C)cs1` [ritonavir] here?
Answer: The concentration at 6 days was roughly 50 ng/mL.

Question: Which Bioavailability ([1]; oral) does the source give for `Nc1nc(=O)n([C@@H]2CS[C@H](CO)O2)cc1F` [FTC, emtricitabine] here?
Answer: The Bioavailability was “over 98%”.

Question: Which Bioavailability ([1]; without food) does the source give for `COC(=O)N[C@H](C(=O)N[C@@H](Cc1ccccc1)[C@@H](O)CN(Cc1ccc(-c2ccccn2)cc1)NC(=O)[C@@H](NC(=O)OC)C(C)(C)C)C(C)(C)C` [ATV, atazanavir] here?
Answer: Its Bioavailability is “about 20%”.

Question: What does the source list for `Cc1cccc(C)c1OCC(=O)N[C@@H](Cc1ccccc1)[C@@H](O)C[C@H](Cc1ccccc1)NC(=O)[C@H](C(C)C)N1CCCNC1=O` [lopinavir]?
Answer: Estimated solubility ([2]; in Brij 78, 65° C.): 0.4725 mg/mg; Estimated solubility ([2]; in Glyceryl behenate, 65° C.): 0.0744 mg/mg; Estimated solubility ([2]; in Killiphor P 188/Poloxamer F68, 65° C.): 0.3431 mg/mg; Estimated solubility ([2]; in Kollisolv MCT70, 65° C.): 0.0779 mg/mg; Estimated solubility ([2]; in Kolliwax GMS I, 65° C.): 0.5846 mg/mg; Estimated solubility ([2]; in Miglyo812, 65° C.): 0.0703 mg/mg; Estimated solubility ([2]; in Oleic acid, 65° C.): 1.19 mg/mg; Estimated solubility ([2]; in TPGS, 65° C.): 0.6012 mg/mg; concentration at 6 days ([7]; 100 mg/kg of LPV, read-out: LPV Ctrough): > 160 ng/mL

Question: With `CN(Cc1cnc2nc(N)nc(N)c2n1)c1ccc(C(=O)N[C@@H](CCC(=O)O)C(=O)O)cc1` [MTX, methotrexate] as the compound, how does the Bioavailability ([1]; oral) read?
Answer: The Bioavailability was 30%.

Question: With `COc1cc(/C=C/C(=O)CC(=O)/C=C/c2ccc(O)c(OC)c2)ccc1O` [Curcumin] as the compound, how does the “Solubility (w/w)” value ([2]; in Campriltol 888, 65° C.) read?
Answer: Its value is 0.0160 w/w.

Question: What about the “Solubility (w/w)” value ([2]; in Gelucire 44/14, 65° C.) of the same compound?
Answer: The value was 0.153 w/w.

Question: What about the “Solubility (w/w)” value ([2]; in Imwitor 491, 65° C.) of the same compound?
Answer: Its value is 0.0261 w/w.

Question: And the “Solubility (w/w)” value ([2]; in Imwitor 900K, 65° C.)?
Answer: The value was 0.0512 w/w.

Question: What about the “Solubility (w/w)” value ([2]; in Imwitor 960, 65° C.) of the same compound?
Answer: Its value is 0.0488 w/w.

Question: What about the “Solubility (w/w)” value ([2]; in Kollisolv MCT70, 65° C.) of the same compound?
Answer: The value was 0.0179 w/w.

Question: What about the “Solubility (w/w)” value ([2]; in Labrafac, 65° C.) of the same compound?
Answer: The value was 0.0120 w/w.

Question: And the “Solubility (w/w)” value ([2]; in Labrasol, 65° C.)?
Answer: Its value is 0.173 w/w.

Question: What about the “Solubility (w/w)” value ([2]; in Migloyl 812 N, 65° C.) of the same compound?
Answer: The value was 0.0153 w/w.

Question: What about the “Solubility (w/w)” value ([2]; in Migloyl 829, 65° C.) of the same compound?
Answer: Its value is 0.0210 w/w.

Question: What about the “Solubility (w/w)” value ([2]; in Poloxamer 188, 65° C.) of the same compound?
Answer: Its value is 0.153 w/w.

Question: And the “Solubility (w/w)” value ([2]; in TPGS, 65° C.)?
Answer: The value was 0.164 w/w.

Question: And the “Solubility (w/w)” value ([2]; in Tween 20, 65° C.)?
Answer: The value was 0.166 w/w.

Question: And the “Solubility (w/w)” value ([2]; in Tween 80, 65° C.)?
Answer: Its value is 0.141 w/w.

Question: And the IC50 ([3]; PC-3 sensitive)?
Answer: Its IC50 is 7.9 ± 0.3 µM.

Question: What about the IC50 ([4]; DU-145 sensitive) of the same compound?
Answer: The IC50 was 7.2 ± 0.4 µM.

Question: And the IC50 ([5]; PC-3 resistance)?
Answer: The IC50 was 7.7 ± 0.1 µM.

Question: What about the IC50 ([6]; DU-145 resistance) of the same compound?
Answer: Its IC50 is 10 ± 0.5 µM.

Question: What about the “IC50 higher in resistant DU145 than in sensitive DU145” value ([6]; resistant vs sensitive DU145) of the same compound?
Answer: The value was 1.4 fold.

Question: What about the “Concentration with anticancer effects” value [8] of the same compound?
Answer: The value was 5 to 30 µM.
